The supplement of paper PMC13380429
± gives the standard deviation of the averaged measurements.

Legend:
Settings in all cases: 72 h
[1] = tested on: Calu-3; assay: relative viability EC50 (midpoint between 100% and the lowest measured viability); higher = less toxic
[2] = tested on: Vero E6; assay: as above
[3] = tested on: U2OS; assay: as above
[4] = tested on: HepG2; assay: as above
[5] = tested on: Caco-2; assay: as above
[6] = tested on: Calu-3; assay: drug sensitivity score (DSS) for viability; higher = more toxic; extreme values may be limits of the assay
[7] = tested on: Vero E6; assay: as above
[8] = tested on: U2OS; assay: as above
[9] = tested on: HepG2; assay: as above
[10] = tested on: Caco-2; assay: as above
[11] = tested on: Calu-3; assay: cell viability relative to DMSO; higher = less toxic
[12] = tested on: Vero E6; assay: as above
[13] = tested on: U2OS; assay: as above
[14] = tested on: HepG2; assay: as above
[15] = tested on: Caco-2; assay: as above

## CC(C)(Sc1ccc(CCN(CCCCC2CCCCC2)C(=O)NC2CCCCC2)cc1)C(=O)O [GW-7647]
[1]
  relative viability EC50: > 10 µM
[2]
  relative viability EC50: > 10 µM
[3]
  relative viability EC50: > 10 µM
[4]
  relative viability EC50: > 10 µM
[5]
  relative viability EC50: > 10 µM
[6]
  drug sensitivity score: 0
[7]
  drug sensitivity score: 0
[8]
  drug sensitivity score: 0
[9]
  drug sensitivity score: 0
[10]
  drug sensitivity score: 0
[11]; 1 nM
  cell viability: 97.9%
[11]; 10 nM
  cell viability: 110%
[11]; 100 nM
  cell viability: 100%
[11]; 1000 nM
  cell viability: 94.6%
[11]; 10000 nM
  cell viability: 100%
[12]; 1 nM
  cell viability: 97.3%
[12]; 10 nM
  cell viability: 100%
[12]; 100 nM
  cell viability: 91.1%
[12]; 1000 nM
  cell viability: 97.7%
[12]; 10000 nM
  cell viability: 110%
[13]; 1 nM
  cell viability: 101%
[13]; 10 nM
  cell viability: 101%
[13]; 100 nM
  cell viability: 105%
[13]; 1000 nM
  cell viability: 96.2%
[13]; 10000 nM
  cell viability: 98.2%
[14]; 1 nM
  cell viability: 87%
[14]; 10 nM
  cell viability: 95.3%
[14]; 100 nM
  cell viability: 99.1%
[14]; 1000 nM
  cell viability: 87%
[14]; 10000 nM
  cell viability: 101%
[15]; 1 nM
  cell viability: 87.7%
[15]; 10 nM
  cell viability: 101%
[15]; 100 nM
  cell viability: 98.3%
[15]; 1000 nM
  cell viability: 104%
[15]; 10000 nM
  cell viability: 103%

## O=C(Nc1ccccc1)Nc1ccc(-c2ccc(C(=O)[C@@H]3CCC[C@@H]3C(=O)O)cc2)cc1
[1]
  relative viability EC50: > 10 µM
[2]
  relative viability EC50: > 10 µM
[3]
  relative viability EC50: > 10 µM
[4]
  relative viability EC50: > 10 µM
[5]
  relative viability EC50: > 10 µM
[6]
  drug sensitivity score: 0
[7]
  drug sensitivity score: 0
[8]
  drug sensitivity score: 0
[9]
  drug sensitivity score: 0.35 ± 0.49
[10]
  drug sensitivity score: 0.4 ± 0.42
[11]; 1 nM
  cell viability: 111 ± 3%
[11]; 10 nM
  cell viability: 103.8 ± 0.85%
[11]; 100 nM
  cell viability: 97.2 ± 1.4%
[11]; 1000 nM
  cell viability: 98.2 ± 5.6%
[11]; 10000 nM
  cell viability: 108 ± 1.9%
[12]; 1 nM
  cell viability: 101 ± 3.9%
[12]; 10 nM
  cell viability: 98.7 ± 1.1%
[12]; 100 nM
  cell viability: 98.45 ± 0.35%
[12]; 1000 nM
  cell viability: 94.3 ± 2.8%
[12]; 10000 nM
  cell viability: 95.1 ± 0.57%
[13]; 1 nM
  cell viability: 98.5 ± 1.5%
[13]; 10 nM
  cell viability: 98.6 ± 5.8%
[13]; 100 nM
  cell viability: 100 ± 1.3%
[13]; 1000 nM
  cell viability: 101 ± 2%
[13]; 10000 nM
  cell viability: 94.2 ± 2.1%
[14]; 1 nM
  cell viability: 105.2 ± 0.49%
[14]; 10 nM
  cell viability: 96.4 ± 1.4%
[14]; 100 nM
  cell viability: 95.5 ± 10%
[14]; 1000 nM
  cell viability: 92.2 ± 7%
[14]; 10000 nM
  cell viability: 97.1 ± 7.3%
[15]; 1 nM
  cell viability: 99.05 ± 0.78%
[15]; 10 nM
  cell viability: 95.8 ± 1.6%
[15]; 100 nM
  cell viability: 94.35 ± 0.35%
[15]; 1000 nM
  cell viability: 97 ± 13%
[15]; 10000 nM
  cell viability: 85.6 ± 0.28%

## O=C(O)[C@H](CC(=O)N1C[C@H]2CCCC[C@H]2C1)Cc1ccccc1 [mitiglinide]
[1]
  relative viability EC50: > 10 µM
[2]
  relative viability EC50: > 10 µM
[3]
  relative viability EC50: > 10 µM
[4]
  relative viability EC50: > 10 µM
[5]
  relative viability EC50: > 10 µM
[6]
  drug sensitivity score: 0
[7]
  drug sensitivity score: 0
[8]
  drug sensitivity score: 0
[9]
  drug sensitivity score: 0
[10]
  drug sensitivity score: 0
[11]; 1 nM
  cell viability: 86.3%
[11]; 10 nM
  cell viability: 93%
[11]; 100 nM
  cell viability: 88.2%
[11]; 1000 nM
  cell viability: 92.8%
[11]; 10000 nM
  cell viability: 104%
[12]; 1 nM
  cell viability: 98.4%
[12]; 10 nM
  cell viability: 104%
[12]; 100 nM
  cell viability: 101%
[12]; 1000 nM
  cell viability: 98.5%
[12]; 10000 nM
  cell viability: 103%
[13]; 1 nM
  cell viability: 92.2%
[13]; 10 nM
  cell viability: 104%
[13]; 100 nM
  cell viability: 95.3%
[13]; 1000 nM
  cell viability: 116%
[13]; 10000 nM
  cell viability: 96.4%
[14]; 1 nM
  cell viability: 98.2%
[14]; 10 nM
  cell viability: 84.2%
[14]; 100 nM
  cell viability: 91.5%
[14]; 1000 nM
  cell viability: 94.6%
[14]; 10000 nM
  cell viability: 104%
[15]; 1 nM
  cell viability: 99.9%
[15]; 10 nM
  cell viability: 96.4%
[15]; 100 nM
  cell viability: 95%
[15]; 1000 nM
  cell viability: 101%
[15]; 10000 nM
  cell viability: 94.9%
